Laboratory results taken from patent US20180267043A1, “USE OF BIOMARKERS FOR PREDICTING CLINICAL SENSITIVITY TO CANCER TREATMENT” (CELGENE CORPORATION, priority 2014, published 2018).

Tests used:
[1] = test system: Aiolos, CK1a, GSPT1 in OCI-LY10; assay: Western blot analysis in lymphoma cell line OCI-LY10; type: cell-based; conditions: OCI-LY10, 100 μM Compound C, 6 hours
Description: Cells were harvested with RIPA buffer, and proteins from cell lysates were separated by 10% sodium dodecyl sulfate polyacrylamide (SDS-PAGE) gel electrophoresis (Bio-Rad), then transferred to PVDF membranes (Invitrogen). Immunoblots were probed with antibodies recognizing Aiolos (9-9-7; Celgene), CK1a (Abcam), GSPT1 (Sigma), ZFP91 (LSBio) and β-actin (Li-Cor). Signals were detected with a Li-Cor Odyssey imager.

[2] = biological target: T1, human CRBN isoform 2 (IKZF1/3, GSPT1/2 as substrates) (Homo sapiens, UniProt Q96SW2); assay: Substrate degradation in CRBN−/− cells expressing human CRBN isoform 2 or mutants; type: cell-based; conditions: cells expressing human CRBN isoform 2
T1 construct: expressed in transfected cells; host or cells: CRBN-/- cells (elsewhere: 293FT, CRISPR)
T1 sequence (Q96SW2 1-441 isoform Q96SW2-2): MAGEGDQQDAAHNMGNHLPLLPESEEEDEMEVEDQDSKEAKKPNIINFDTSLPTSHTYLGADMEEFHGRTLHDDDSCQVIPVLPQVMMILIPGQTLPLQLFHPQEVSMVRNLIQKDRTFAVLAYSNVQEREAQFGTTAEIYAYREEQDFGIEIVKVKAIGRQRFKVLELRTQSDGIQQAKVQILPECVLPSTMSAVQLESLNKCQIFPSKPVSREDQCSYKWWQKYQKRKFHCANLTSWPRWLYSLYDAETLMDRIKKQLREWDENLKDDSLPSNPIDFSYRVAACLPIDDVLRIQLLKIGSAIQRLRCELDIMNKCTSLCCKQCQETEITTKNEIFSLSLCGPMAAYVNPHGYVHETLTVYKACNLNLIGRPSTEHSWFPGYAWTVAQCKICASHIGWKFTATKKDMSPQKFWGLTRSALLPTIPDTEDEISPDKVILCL
T1 sequence (Q16531 whole entry partner, canonical isoform): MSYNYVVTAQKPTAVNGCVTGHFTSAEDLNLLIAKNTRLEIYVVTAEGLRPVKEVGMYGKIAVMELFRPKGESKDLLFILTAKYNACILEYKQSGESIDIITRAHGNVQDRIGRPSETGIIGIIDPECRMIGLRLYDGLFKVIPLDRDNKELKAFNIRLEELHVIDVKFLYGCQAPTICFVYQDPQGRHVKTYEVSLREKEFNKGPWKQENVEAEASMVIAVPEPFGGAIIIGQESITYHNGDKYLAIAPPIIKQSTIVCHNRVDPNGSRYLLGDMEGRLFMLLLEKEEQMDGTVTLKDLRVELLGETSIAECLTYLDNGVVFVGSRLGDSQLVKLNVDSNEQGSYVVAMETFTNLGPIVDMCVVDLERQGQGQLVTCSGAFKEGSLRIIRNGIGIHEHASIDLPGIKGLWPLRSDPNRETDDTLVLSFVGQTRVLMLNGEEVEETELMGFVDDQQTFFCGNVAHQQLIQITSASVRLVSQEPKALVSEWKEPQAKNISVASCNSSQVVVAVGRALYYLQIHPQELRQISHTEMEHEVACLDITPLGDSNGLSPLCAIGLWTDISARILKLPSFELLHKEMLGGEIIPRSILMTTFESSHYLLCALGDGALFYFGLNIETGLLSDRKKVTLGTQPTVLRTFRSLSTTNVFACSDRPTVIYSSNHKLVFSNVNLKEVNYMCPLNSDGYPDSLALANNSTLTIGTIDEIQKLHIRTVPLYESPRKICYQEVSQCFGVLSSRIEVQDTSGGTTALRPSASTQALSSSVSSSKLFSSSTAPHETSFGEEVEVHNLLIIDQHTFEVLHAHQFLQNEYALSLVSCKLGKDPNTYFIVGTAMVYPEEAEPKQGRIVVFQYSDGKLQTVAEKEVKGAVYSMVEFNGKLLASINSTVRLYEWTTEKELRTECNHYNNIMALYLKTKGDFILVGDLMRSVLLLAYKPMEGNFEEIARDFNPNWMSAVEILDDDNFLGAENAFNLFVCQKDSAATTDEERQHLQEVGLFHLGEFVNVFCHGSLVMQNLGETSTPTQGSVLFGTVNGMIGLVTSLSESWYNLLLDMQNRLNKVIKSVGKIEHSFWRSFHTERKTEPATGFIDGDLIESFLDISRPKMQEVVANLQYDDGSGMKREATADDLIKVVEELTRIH
Description: (§1) They were co-expressed together with GFP in CRBN −/− cells. These cells also expressed human CRBN isoform 2, or various specific mutants (hCRBNiso2 E376V, hCRBNiso2 V387I, or hCRBNiso2 W385A) by transfection with corresponding DNA.

[3] = biological target: T2, human CRBN isoform 2 (IKZF1/3, GSPT1/2 as substrates) (Homo sapiens, UniProt Q96SW2, E377V); assay: as above; type: cell-based; conditions: hCRBNiso2 E376V; 1 μM Compound C
T2 construct: expressed in transfected cells; host or cells: CRBN-/- cells (elsewhere: 293FT, CRISPR)
T2 sequence (Q96SW2 1-441 isoform Q96SW2-2 E376V): as the sequence (Q96SW2 1-441 isoform Q96SW2-2) above, with E376V counted along it
T2 sequence (Q16531 whole entry partner, canonical isoform): as the sequence (Q16531 whole entry partner, canonical isoform) above
Description: as §1

[4] = biological target: T3, human CRBN isoform 2 (IKZF1/3, GSPT1/2 as substrates) (Homo sapiens, UniProt Q96SW2, V388I); assay: as above; type: cell-based; conditions: hCRBNiso2 V387I; 1 μM Compound C
T3 construct: expressed in transfected cells; host or cells: CRBN-/- cells (elsewhere: 293FT, CRISPR)
T3 sequence (Q96SW2 1-441 isoform Q96SW2-2 V387I): as the sequence (Q96SW2 1-441 isoform Q96SW2-2) above, with V387I counted along it
T3 sequence (Q16531 whole entry partner, canonical isoform): as the sequence (Q16531 whole entry partner, canonical isoform) above
Description: as §1

[5] = test system: human CRBN isoform 2 (IKZF1/3, GSPT1/2 as substrates); assay: as above; type: cell-based; conditions: CRBN−/− cells without human CRBN; 10 μM lenalidomide or 1 μM Compound C
Description: as §1

[6] = test system: DF15; assay: CellTiter-Glo cell viability assay after GSPT1 knockdown, DF15; type: cell-based, human; conditions: DF15 expressing shGSPT1-1 or shGSPT1-3 vs parental or control shRNA, 0.01 nM to 0.1 μM, day 9
Protocol: The effect of depletion of GSPT1 on the anti-proliferative effect of Compound C was determined in human multiple myeloma (MM) cell lines DF15 and RPMI-8226. Treatment compounds were titrated from 0.01 nM to 0.1 μM. Cell proliferation was measured by the CellTiter-Glo cell viability assay (RLU-Relative Luminescent Unit) at day 9 after GSPT1 knockdown by shGSPT1-1 or shGSPT1-3.

[7] = test system: Molm13; assay: CellTiter-Glo cell viability assay, Molm13; type: cell-based, human; conditions: 48 hours
Protocol: The effect of overexpression of GSPT1 on the anti-proliferative effect of Compound C was determined in human histiocytic lymphoma cell line U937 and human leukemia cell line Molm13. Treatment compounds were titrated from 0.1 nM to 1 μM. Cell proliferation was measured by CellTiter-Glo cell viability assay at 48 hours after treatment.

[8] = test system: GSPT1, BIP, ER stress or apoptosis pathways; assay: Expression level of ER stress and apoptosis components in 293FT HEK cells; type: cell-based, human; conditions: 20 hours
Protocol: CRBN+/+ and CRBN−/− cells were treated with DMSO alone, 1 nM, or 10 nM Compound C. After 20 hours, the expression level of various cellular components along the endoplasmic reticulum (ER) stress or apoptosis pathways was measured. […] BIP is an ER luminal KDEL protein that requires binding with KDEL receptor in the cis-Golgi to be retro-transported into the ER lumen for retention. Loss of GSPT1 leads to the inactivation of the eRF1/GSPT1 complex and therefore allows translation readthrough of de novo sysnthesized proteins such as BIP. Addition of extra residues to the BIP C-terminus blocks the recognization of KDEL motif and BIP C-terminal epitopes by the KDEL receptor and BIP C-terminal antibodies, respectively. […] BIP interacts with the ER luminal domain of UPR sensors PERK, IRE1, and ATF6 to prevent their activation. Reduction of BIP C-terminal immunoreactivity indicates a mislocalization of BIP, which presumably leads to its dissociation from PERK, IRE1, and ATF6 and induces UPR.

[9] = test system: RPMI-8226; assay: Sensitivity to compound-induced ER stress and apoptosis, RPMI-8226; type: cell-based, human
Protocol: The GSPT1 dependency was shown by GSPT1-specific shRNA knockdown experiment. The GSPT1 degradation efficiency was shown by Western Blot. The induction of ATF3 or DDIT3 was measured by quantitative RT-PCR. […] Time needed for Compound C-induced ER stress or Compound C-induced apoptosis was summarized. […] High ER demand may contribute to the sensitivity of certain cancer cells to the treatment of Compound C.

## Cc1ccc(NC(=O)NCc2ccc3c(c2)CN(C2CCC(=O)NC2=O)C3=O)cc1Cl (stereo not shown) [Compound C, 1-(3-chloro-4-methylphenyl)-3-((2-(2,6-dioxopiperidin-3-yl)-1-oxoisoindolin-5-yl)methyl)urea]
[1]
  Aiolos and CK1a protein levels: also reduce
  GSPT1 protein level: reduces
[2]; 1 μM Compound C
  Destruction of GSPT1/2: induces destruction of IKZF1/3 and GSPT1/2
[2]; 10 μM lenalidomide or 1 μM Compound C
  Destruction of IKZF1/3: induces destruction of IKZF1/3 and GSPT1/2
[3]
  Degradation of GSPT1/2: abolishes Compound C-induced degradation of GSPT1/2
[4]
  Degradation of IKZF1/3: abolishes Compound C-induced degradation of IKZF1/3
[5]
  Degradation of tested substrates (IKZF1/3, GSPT1/2): neither compound triggers degradation of any tested substrate
[6]
  Anti-proliferative effect: increased anti-proliferative effect
[7]; Molm13, exogenous GSPT1 overproduced via EF1a promoter
  Anti-proliferative effect: the anti-proliferative effect of Compound C reduces
[7]; Molm13 CRBN −/− cells
  Anti-proliferative effect: completely abolished
[7]; Molm13 parental cells, 0.1 nM to 1 μM
  Cell proliferation: inhibits cell proliferation
[8]; 293FT CRBN+/+ cells, 1 nM or 10 nM
  Degradation of GSPT1: induces degradation of GSPT1 in CRBN+/+ cells
[8]; 293FT HEK cells
  Cellular components in acute apoptotic cell death: are not affected
[8]; 293FT, 1 nM or 10 nM
  Immunoreactivity of BIP antibody that binds to BIP amino-terminal region: is not affected
[8]; 293FT, 1 nM or 10 nM, dose dependent
  Immunoreactivity of KDEL antibody and BIP carboxyl-terminus (BIP-CT) antibody: dramatically decreased
[9]
  Sensitivity to compound-induced ER stress and apoptosis: resistant to Compound C-induced ER stress and apoptosis
